Experimental data reported in BindingDB's records for doi:10.1016/j.chembiol.2010.02.007 (Harvard Medical School, 2010).

How the values were obtained:
Assay in all cases: In Vitro Activity Kinase Assay
[1] = biological target: Mast/stem cell growth factor receptor Kit (Homo sapiens, UniProt P10721)
Description: (§1) In vitro kinase assay profiled against a panel of different kinase binding assay using Ambit kinomeScan technology. Biochemical IC50 values were determined using the Z'-lyte assays format from Invitrogen.

[2] = biological target: Fibroblast growth factor receptor 3 (Homo sapiens, UniProt P22607)
Description: as §1

[3] = biological target: Platelet-derived growth factor receptor beta (Homo sapiens, UniProt P09619)
Description: as §1

[4] = biological target: Fibroblast growth factor receptor 2 (Homo sapiens, UniProt P21802)
Description: as §1

[5] = biological target: Vascular endothelial growth factor receptor 3 (Homo sapiens, UniProt P35916)
Description: as §1

[6] = biological target: Hepatocyte growth factor receptor (Homo sapiens, UniProt P08581)
Description: as §1

[7] = biological target: Vascular endothelial growth factor receptor 2 (Homo sapiens, UniProt P35968)
Description: as §1

[8] = biological target: Mitogen-activated protein kinase 7 (Homo sapiens, UniProt Q13164)
Description: as §1

[9] = biological target: Fibroblast growth factor receptor 1 (Homo sapiens, UniProt P11362)
Description: as §1

[10] = biological target: Fibroblast growth factor receptor 4 (Homo sapiens, UniProt P22455)
Description: as §1

[11] = biological target: Tyrosine-protein kinase Blk (Homo sapiens, UniProt P51451)
Description: as §1

[12] = biological target: Vascular endothelial growth factor receptor 1 (Homo sapiens, UniProt P17948)
Description: as §1

Chain of Vascular endothelial growth factor receptor 2 (P35968 whole entry): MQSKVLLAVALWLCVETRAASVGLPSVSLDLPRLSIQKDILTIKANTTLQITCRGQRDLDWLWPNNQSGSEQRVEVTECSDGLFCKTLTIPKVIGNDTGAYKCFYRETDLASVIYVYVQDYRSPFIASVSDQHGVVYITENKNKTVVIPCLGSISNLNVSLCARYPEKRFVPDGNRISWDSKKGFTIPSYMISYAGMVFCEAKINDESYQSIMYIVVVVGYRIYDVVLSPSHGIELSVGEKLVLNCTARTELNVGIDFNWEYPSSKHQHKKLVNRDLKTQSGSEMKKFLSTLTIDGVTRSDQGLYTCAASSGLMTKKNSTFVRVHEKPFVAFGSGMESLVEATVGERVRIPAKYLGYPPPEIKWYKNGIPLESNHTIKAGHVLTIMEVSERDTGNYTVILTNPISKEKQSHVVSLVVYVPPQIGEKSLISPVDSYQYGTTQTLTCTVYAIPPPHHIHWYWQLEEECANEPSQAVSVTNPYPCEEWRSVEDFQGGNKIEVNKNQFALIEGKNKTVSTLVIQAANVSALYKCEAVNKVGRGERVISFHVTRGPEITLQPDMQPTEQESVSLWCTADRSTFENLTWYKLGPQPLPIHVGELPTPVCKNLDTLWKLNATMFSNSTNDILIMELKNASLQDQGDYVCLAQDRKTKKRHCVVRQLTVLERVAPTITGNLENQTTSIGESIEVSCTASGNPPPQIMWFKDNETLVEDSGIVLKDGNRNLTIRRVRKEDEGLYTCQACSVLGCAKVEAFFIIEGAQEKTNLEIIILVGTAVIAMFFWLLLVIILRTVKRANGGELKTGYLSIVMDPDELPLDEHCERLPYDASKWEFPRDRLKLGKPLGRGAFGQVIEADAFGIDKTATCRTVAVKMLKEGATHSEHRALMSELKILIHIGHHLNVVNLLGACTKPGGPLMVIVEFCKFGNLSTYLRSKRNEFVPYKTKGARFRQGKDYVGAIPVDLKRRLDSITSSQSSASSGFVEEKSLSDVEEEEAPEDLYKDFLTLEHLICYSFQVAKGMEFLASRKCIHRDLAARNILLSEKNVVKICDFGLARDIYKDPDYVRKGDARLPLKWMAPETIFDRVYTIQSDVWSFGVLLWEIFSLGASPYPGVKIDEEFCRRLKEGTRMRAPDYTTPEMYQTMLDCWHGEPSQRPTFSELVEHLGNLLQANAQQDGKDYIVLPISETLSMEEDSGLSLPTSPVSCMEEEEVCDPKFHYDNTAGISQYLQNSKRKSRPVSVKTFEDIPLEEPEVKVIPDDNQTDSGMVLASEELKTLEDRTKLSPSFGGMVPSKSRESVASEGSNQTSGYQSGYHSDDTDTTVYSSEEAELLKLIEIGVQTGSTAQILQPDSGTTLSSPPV
Chain of Vascular endothelial growth factor receptor 3 (P35916 whole entry): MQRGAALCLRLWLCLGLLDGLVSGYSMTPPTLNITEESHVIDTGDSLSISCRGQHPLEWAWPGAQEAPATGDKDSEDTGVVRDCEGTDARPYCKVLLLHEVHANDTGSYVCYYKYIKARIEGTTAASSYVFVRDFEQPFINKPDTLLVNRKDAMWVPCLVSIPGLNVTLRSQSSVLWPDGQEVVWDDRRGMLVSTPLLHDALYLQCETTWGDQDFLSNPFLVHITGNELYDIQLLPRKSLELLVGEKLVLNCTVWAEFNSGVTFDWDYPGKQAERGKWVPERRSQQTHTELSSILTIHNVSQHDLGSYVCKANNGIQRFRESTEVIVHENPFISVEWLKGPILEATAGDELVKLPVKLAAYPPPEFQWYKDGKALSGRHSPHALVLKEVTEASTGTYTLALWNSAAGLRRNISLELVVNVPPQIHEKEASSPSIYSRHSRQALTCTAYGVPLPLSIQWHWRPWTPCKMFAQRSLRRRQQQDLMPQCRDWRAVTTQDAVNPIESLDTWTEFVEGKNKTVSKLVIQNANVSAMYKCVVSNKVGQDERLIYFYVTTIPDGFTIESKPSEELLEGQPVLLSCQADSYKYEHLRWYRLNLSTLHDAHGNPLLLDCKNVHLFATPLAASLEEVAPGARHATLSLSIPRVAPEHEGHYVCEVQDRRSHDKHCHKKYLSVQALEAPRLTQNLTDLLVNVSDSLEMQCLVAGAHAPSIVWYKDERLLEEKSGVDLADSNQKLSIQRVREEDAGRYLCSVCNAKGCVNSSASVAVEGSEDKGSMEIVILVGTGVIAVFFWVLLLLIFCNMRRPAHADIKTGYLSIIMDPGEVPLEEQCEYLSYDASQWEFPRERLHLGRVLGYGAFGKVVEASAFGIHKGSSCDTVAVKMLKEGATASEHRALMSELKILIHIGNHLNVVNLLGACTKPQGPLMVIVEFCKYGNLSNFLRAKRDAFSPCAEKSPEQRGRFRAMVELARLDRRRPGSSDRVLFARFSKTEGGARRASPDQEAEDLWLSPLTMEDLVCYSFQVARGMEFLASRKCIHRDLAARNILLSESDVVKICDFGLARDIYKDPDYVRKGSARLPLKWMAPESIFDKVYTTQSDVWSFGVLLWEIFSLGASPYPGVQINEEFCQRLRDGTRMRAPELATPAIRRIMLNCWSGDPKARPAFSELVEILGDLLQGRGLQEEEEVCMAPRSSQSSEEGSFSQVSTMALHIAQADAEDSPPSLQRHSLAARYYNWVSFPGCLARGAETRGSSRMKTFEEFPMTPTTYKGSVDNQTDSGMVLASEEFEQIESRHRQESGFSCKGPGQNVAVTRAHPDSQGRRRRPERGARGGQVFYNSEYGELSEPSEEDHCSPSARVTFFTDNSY
Chain of Vascular endothelial growth factor receptor 1 (P17948 whole entry): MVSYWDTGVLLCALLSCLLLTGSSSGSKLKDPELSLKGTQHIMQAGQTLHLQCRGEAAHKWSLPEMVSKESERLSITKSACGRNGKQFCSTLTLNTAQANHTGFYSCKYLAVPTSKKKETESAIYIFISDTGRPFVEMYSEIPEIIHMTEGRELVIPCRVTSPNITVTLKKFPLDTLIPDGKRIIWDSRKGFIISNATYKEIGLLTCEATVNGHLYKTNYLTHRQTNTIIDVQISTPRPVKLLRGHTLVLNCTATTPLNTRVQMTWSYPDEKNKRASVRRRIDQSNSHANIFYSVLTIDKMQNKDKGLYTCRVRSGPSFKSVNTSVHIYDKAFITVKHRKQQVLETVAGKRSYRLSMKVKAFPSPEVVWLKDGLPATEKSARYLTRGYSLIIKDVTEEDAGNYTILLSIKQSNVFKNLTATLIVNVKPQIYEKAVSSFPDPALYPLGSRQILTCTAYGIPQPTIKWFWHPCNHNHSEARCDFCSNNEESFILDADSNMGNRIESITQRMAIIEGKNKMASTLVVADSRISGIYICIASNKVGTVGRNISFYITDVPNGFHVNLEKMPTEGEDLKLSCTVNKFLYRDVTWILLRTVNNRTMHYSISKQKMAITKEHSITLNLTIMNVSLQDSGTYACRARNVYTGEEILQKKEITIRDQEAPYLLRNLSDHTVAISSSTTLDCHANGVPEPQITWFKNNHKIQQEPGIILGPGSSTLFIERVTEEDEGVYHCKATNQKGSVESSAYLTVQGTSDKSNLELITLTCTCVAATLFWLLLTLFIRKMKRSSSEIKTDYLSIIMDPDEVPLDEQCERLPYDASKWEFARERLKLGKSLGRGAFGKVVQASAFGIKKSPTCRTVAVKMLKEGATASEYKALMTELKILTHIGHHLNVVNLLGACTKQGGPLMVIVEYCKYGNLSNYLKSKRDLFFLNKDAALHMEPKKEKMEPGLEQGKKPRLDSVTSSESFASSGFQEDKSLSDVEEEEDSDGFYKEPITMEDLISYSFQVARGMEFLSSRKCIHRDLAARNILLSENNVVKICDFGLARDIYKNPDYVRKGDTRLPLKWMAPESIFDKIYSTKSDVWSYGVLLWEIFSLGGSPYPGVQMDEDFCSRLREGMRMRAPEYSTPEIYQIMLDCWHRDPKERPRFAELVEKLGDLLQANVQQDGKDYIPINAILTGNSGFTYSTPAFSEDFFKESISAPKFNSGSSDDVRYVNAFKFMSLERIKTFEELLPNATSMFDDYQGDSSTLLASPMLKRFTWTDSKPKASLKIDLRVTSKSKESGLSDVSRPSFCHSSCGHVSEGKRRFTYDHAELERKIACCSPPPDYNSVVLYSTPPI
Chain of Fibroblast growth factor receptor 3 (P22607 whole entry): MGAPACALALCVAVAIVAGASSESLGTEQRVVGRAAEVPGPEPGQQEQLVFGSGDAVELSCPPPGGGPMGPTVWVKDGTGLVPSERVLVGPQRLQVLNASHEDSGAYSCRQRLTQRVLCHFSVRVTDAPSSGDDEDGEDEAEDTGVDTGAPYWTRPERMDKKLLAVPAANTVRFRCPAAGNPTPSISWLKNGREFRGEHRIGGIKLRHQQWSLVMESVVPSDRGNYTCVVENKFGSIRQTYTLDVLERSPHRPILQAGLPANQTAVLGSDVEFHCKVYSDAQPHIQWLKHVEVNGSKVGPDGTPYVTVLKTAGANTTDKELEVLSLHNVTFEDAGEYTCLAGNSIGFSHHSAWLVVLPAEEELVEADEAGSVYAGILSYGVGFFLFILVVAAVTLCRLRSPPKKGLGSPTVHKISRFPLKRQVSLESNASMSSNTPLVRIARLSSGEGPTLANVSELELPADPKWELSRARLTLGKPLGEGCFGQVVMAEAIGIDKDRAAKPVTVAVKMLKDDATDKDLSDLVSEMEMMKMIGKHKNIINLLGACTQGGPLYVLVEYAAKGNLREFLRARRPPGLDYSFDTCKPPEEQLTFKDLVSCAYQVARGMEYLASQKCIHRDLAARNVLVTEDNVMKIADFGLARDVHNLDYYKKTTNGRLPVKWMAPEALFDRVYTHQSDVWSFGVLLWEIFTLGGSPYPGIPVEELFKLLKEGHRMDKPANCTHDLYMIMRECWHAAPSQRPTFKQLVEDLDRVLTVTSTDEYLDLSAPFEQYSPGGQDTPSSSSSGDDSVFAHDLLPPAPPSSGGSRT

Compound: CCNCCCCNc1ncc2c(n1)N(Cc1cccc(NC(=O)CC)c1)C(=O)N(c1c(Cl)c(OC)cc(OC)c1Cl)C2 [FRIN-1]
- Kd [1]: 250 nM
- Kd [2]: 5.4 nM
- Kd [3]: 480 nM
- Kd [4]: 5.6 nM
- Kd [5]: 340 nM
- Kd [6]: 1400 nM
- Kd [7]: 470 nM
- Kd [8]: 130 nM
- Kd [9]: 3.1 nM
- Kd [10]: 280 nM
- Kd [11]: 2300 nM
- Kd [12]: 49 nM
